Patent US6579989B1, “Sulphostin analogue and process for producing sulphostin and its analogue” (Zaidan Hojin Biseibutsu Kagaku Kenkyu Kai, priority 1999, dated 2003)

Molecular target: T1, dipeptidylpeptidase IV (Rattus norvegicus, UniProt P14740)
T1 construct: partially purified through ammonium sulfate fractionation of a homogenate obtained from a kidney of a rat; from tissue; host or cells: rat kidney homogenate
Test: Measurement of dipeptidylpeptidase IV inhibiting activity (glycyl prolyl β-naphthylamide substrate, absorbance at 525 nm)
Type: biochemical
Details: IC50 (dipeptidylpeptidase IV inhibition activity), enzyme partially purified from rat kidney homogenate; pH 7.2, 37° C., 1 hour
Procedure: Measurement of Dipeptidylpeptidase IV Inhibiting Activity
Water was added to a mixture of 0.025 ml of 3.2 mM glycyl prolyl β-naphthylamide (BACHEM, Switzerland), 0.1 ml of 0.1 M tris-maleic acid buffer solution (pH 7.2) and a compound shown in Table 1, so that a final volume was adjusted to 0.2 ml. The resulting mixed solution was warmed at 37° C. for 10 minutes, and 0.025 ml of a dipeptidylpeptidase IV solution partially purified through ammonium sulfate fractionation of a homogenate obtained from a kidney of a rat was added thereto. Then, the reaction was continued at 37° C. for 1 hour. […] At the same time, a blank test was conducted to measure absorbance (b) of the buffer solution containing no specimen. A dipeptidylpeptidase IV inhibition percent was calculated from the expression: [(b−a)/b]×100.

T1 sequence (P14740 whole entry): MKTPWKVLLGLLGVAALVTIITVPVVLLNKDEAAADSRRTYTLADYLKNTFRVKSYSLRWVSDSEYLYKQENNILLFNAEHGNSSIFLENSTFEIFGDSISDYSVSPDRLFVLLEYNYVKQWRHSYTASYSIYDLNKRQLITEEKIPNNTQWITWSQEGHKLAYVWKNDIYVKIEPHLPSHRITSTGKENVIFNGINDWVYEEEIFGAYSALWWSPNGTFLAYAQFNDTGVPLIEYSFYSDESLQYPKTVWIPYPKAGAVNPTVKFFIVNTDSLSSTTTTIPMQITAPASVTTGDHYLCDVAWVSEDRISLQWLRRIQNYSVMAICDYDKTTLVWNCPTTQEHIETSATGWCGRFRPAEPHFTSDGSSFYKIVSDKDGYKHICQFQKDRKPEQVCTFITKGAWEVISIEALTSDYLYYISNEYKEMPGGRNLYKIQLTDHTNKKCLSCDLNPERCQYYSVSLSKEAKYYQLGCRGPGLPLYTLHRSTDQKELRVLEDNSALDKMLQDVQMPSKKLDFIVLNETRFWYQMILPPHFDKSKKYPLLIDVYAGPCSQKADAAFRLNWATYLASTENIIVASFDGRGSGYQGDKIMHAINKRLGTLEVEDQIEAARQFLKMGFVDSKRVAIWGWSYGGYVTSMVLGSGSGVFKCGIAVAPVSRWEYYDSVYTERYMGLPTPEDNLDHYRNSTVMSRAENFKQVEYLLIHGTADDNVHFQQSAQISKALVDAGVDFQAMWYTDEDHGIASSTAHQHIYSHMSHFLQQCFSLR

Row | Structure (SMILES) | IC50 [nM]
1 | N[C@H]1CCN(P(N)(=O)NS(=O)(=O)O)C1=O (single isomer, unassigned) [Compound 20, 3(S)-Amino-1-((S*)-amino(sulfoamino)phosphinyl)-2-pyrrolidone] | 1820
2 | N[C@H]1CCN(P(N)(=O)NS(=O)(=O)O)C1=O (single isomer, unassigned) [Compound 21, 3(S)-Amino-1-((R*)-amino(sulfoamino)phosphinyl)-2-pyrrolidone] | 15.1
